Where two headings read alike, the source gives them in different places.
Columns and labels:
Human C5 [1] = target: T1, Human C5 (Homo sapiens, UniProt P01031); test: Surface plasmon resonance (SPR), compounds on immobilized human C5 (Example 2, Table 5); format: binding; conditions: lowest value where a range of compound concentrations were analyzed
T1 construct: purchased Complement Technology

Human C5 [2] = target: T1, Human C5; test: Surface plasmon resonance (SPR), immobilized human C5 (Example 9, Table 18); format: binding; conditions: immobilized human C5, equilibrium dissociation constant; read-out: SPR C5 EQ KD
Description: Morrison and Boyd in “Organic Chemistry”, 6th edition, Prentice Hall (1992)] and validated for proper structure by mass spectrometry.

purified human C5 = purified human C5 (Homo sapiens, UniProt P01031); test: Red blood cell (RBC) hemolysis assay, optical, absorbance 412 nm (Example 10, Table 19); format: cell-based; conditions: antibody-sensitized sheep erythrocytes, […] human C5 depleted sera
[3] = 0.5 nM purified human C5, absorbance 412 nm, read-out: RBC Hemolysis IC50
[4] = 0.5 nM human C5, read-out: IC50

T1 sequence (P01031 19-1676): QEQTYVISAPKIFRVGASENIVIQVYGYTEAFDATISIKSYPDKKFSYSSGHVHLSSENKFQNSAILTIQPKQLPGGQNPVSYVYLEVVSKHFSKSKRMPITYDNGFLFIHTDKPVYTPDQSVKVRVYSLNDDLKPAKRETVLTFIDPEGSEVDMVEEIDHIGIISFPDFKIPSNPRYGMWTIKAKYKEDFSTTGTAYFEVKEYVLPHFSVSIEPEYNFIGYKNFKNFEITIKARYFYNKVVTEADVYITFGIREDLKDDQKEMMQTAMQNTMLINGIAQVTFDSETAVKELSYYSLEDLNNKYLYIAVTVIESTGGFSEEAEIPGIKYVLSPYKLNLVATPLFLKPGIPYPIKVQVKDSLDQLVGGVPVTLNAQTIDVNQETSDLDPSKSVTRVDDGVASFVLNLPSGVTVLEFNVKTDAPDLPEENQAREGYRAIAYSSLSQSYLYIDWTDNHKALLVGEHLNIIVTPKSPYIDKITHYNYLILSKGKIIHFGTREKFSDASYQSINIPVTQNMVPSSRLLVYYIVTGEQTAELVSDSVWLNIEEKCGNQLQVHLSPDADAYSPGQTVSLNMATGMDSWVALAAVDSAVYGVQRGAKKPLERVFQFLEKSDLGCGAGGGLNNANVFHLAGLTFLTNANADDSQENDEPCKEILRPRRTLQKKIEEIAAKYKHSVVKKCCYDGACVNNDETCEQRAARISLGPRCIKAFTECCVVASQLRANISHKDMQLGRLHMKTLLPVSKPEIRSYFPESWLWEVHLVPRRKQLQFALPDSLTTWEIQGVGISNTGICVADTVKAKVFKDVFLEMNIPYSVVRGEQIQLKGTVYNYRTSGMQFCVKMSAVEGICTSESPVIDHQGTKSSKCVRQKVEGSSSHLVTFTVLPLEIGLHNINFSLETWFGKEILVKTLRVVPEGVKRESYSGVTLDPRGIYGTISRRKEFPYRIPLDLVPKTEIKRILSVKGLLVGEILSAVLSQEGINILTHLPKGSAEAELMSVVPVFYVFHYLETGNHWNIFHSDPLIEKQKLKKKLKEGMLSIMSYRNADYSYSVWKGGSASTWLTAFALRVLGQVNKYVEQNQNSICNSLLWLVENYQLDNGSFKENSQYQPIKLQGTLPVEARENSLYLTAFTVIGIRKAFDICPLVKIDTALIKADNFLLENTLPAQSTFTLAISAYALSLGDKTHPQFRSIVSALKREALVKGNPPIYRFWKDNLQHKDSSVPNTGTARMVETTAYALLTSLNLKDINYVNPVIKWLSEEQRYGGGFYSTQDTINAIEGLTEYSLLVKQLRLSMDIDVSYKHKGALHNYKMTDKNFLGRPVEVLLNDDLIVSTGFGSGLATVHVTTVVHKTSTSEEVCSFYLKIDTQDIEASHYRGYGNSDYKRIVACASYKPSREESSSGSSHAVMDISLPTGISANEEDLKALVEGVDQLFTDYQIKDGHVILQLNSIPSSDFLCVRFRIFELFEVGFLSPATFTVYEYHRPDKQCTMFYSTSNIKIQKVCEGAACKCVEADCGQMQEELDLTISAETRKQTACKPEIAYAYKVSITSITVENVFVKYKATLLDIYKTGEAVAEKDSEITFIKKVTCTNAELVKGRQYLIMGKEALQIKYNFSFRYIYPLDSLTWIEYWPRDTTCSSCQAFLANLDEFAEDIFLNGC
Sequence of purified human C5 (P01031 19-1676): as above

COC[C@H](NC(=O)Nc1ccc(OC)c(OCCCC(C)C)c1)c1ccccc1 [SM0120]
Kd (Human C5 [1]): 9500 nM

COc1ccc(NC(=O)N(C)CCO)cc1OCCCC(C)C [SM0109]
Kd (Human C5 [1]): 3800 nM

COc1ccc(NC(=O)N[C@@H](CO)c2ccccc2)cc1OCc1cncnc1 [SM0114, 1-[(1R)-2-hydroxy-1-phenyl-ethyl]-3-[4-methoxy-3-(pyrimidin-5-ylmethoxy)phenyl] urea]
Kd (Human C5 [1]): 6400 nM

CCCCN(C)C(=O)c1cccc(NC(=O)N[C@@H](CO)c2ccccc2)c1 [SM0116, N-butyl-3-[[(1R)-2-hydroxy-1-phenyl-ethyl]carbamoylamino]-N-methyl-benzamide]
Kd (Human C5 [1]): 690 nM

COc1ccc(NC(=O)N[C@@H](CO)c2ccccc2)cc1OCCN1CCN(C)CC1 [SM0115]
Kd (Human C5 [1]): 6700 nM

COc1ccc(NC(=O)NCc2ccc(Br)cc2)cc1OCCCC(C)C [SM0089]
Kd (Human C5 [1]): 3100 nM

COc1ccc(NC(=O)N[C@@H](CO)c2ccccc2)cc1OCCN(C)C [SM0105, 1-[3-[2-(dimethylamino)ethoxy]-4-methoxy-phenyl]-3-[(1R)-2-hydroxy-1-phenyl-ethyl]urea]
Kd (Human C5 [1]): 2600 nM

CNC(=O)[C@H](NC(=O)Nc1ccc(OC)c(OCCCC(C)C)c1)c1ccccc1 [SM0093]
Kd (Human C5 [1]): 240 nM

COc1ccc(NC(=O)NC(CO)Cc2ccccc2)cc1OCCCC(C)C (stereo not drawn) [SM0092]
Kd (Human C5 [1]): 540 nM

COc1ccc(NC(=O)N[C@@H](CO)C(C)(C)C)cc1OCCCC(C)C [SM0091]
Kd (Human C5 [1]): 990 nM

COc1ccc(NC(=O)N[C@@H](C(N)=O)c2ccccc2)cc1OCCCC(C)C [SM0102]
Kd (Human C5 [1]): 1700 nM

COc1ccc(NC(=O)NC2CCCCC2O)cc1OCCCC(C)C (stereo not drawn) [SM0097]
Kd (Human C5 [1]): 2200 nM

COc1ccc(NC(=O)N[C@@H](CO)c2ccccc2)cc1OCCC1CC1 [SM0101]
Kd (Human C5 [1]): 150 nM

CCS(=O)(=O)NCCn1ccc2c(CNC(=O)Nc3ccc(OC)c(OCCCC(C)C)c3)ccnc21 [Compound C5INH-0410]
Kd (Human C5 [2]): 840 nM | IC50 (purified human C5; [3]): 568 nM

COc1ccc(NC(=O)NC(CO)c2cc(F)ccc2O)cc1OCCCC(C)C (stereo not drawn) [Compound C5INH-0315]
Kd (Human C5 [2]): 50 nM | IC50 (purified human C5; [4]): < 20 nM | IC50 (purified human C5; [3]): 13.7 nM

COc1ccc(NC(=O)NCC2CCC(F)(F)CC2)cc1OCCCC(C)C [SM0111]
Kd (Human C5 [1]): 4700 nM

COc1ccc(NC(=O)NCc2cccc(OCCN(C)C)c2)cc1OCCCC(C)C [Compound C5INH-0462]
Kd (Human C5 [2]): 95 nM | IC50 (purified human C5; [3]): 113 nM

COc1ccc(NC(=O)NC(CO)c2cccc(OC)c2O)cc1OCCCC(C)C (stereo not drawn) [Compound C5INH-0486]
Kd (Human C5 [2]): 25 nM | IC50 (purified human C5; [4]): 3 nM

COc1ccc(NC(=O)NCc2ccc(Cn3ccnc3)cc2)cc1OCCCC(C)C [Compound C5INH-0460]
Kd (Human C5 [2]): 578 nM | IC50 (purified human C5; [3]): 725 nM

COc1ccc(NC(=O)NC(CN(C)C)c2ccccc2)cc1OCCCC(C)C (stereo not drawn) [SM0121]
Kd (Human C5 [1]): 9500 nM

COCCOCCOc1cc(CNC(=O)Nc2ccc(OC)c(OCCCC(C)C)c2)ccn1 [Compound C5INH-0384]
Kd (Human C5 [2]): 810 nM | IC50 (purified human C5; [3]): 2180 nM

COc1ccc(NC(=O)NCc2ccnc(OCCN)c2)cc1OCCCC(C)C [Compound C5INH-0382]
Kd (Human C5 [2]): 181 nM | IC50 (purified human C5; [3]): 312 nM

COc1ccc(NC(=O)N[C@@H](CO)c2ccccc2)cc1OCc1ccccn1 [SM0095]
Kd (Human C5 [1]): 1600 nM

COc1ccc(NC(=O)NCc2cccc(N3CCN(C)CC3)c2)cc1OCCCC(C)C [Compound C5INH-0369]
Kd (Human C5 [2]): 104 nM | IC50 (purified human C5; [3]): 592 nM

COc1ccc(NC(=O)NCc2cccc(NC(C)=O)c2)cc1OCCCC(C)C [Compound C5INH-0496]
Kd (Human C5 [2]): 600 nM | IC50 (purified human C5; [3]): 400 nM

COc1ccc(NC(=O)NCc2ccc(O)cc2O)cc1OCCCC(C)C [Compound C5INH-0311]
Kd (Human C5 [2]): 20 nM | IC50 (purified human C5; [3]): 27 nM

COc1ccc(NC(=O)NC(CO)c2cc(NC(C)=O)ccc2OC)cc1OCCCC(C)C (stereo not drawn) [Compound C5INH-0489]
Kd (Human C5 [2]): 364 nM | IC50 (purified human C5; [3]): 177 nM

COc1cc(CN(C)C(C)=O)c(NC(=O)NCc2ccnc3[nH]ccc23)cc1OCCCC(C)C [Compound C5INH-0527]
Kd (Human C5 [2]): 650 nM | IC50 (purified human C5; [3]): 2270 nM

COc1ccc(C(CO)NC(=O)Nc2ccc(OC)c(OCCCC(C)C)c2)cc1OC (stereo not drawn) [Compound C5INH-0352]
Kd (Human C5 [2]): 700 nM | IC50 (purified human C5; [3]): 2950 nM

COc1ccc(NC(=O)NCc2cccc3c2ccn3CCN2CCOCC2)cc1OCCCC(C)C [Compound C5INH-0437]
Kd (Human C5 [2]): 37 nM | IC50 (purified human C5; [3]): 81.5 nM

CCCCCCOc1ccc(NC(=O)N[C@@H](CO)c2ccccc2)cc1 [SM0112]
Kd (Human C5 [1]): 5500 nM

COc1ccc(NC(=O)NCc2cccc3c2ncn3CCN(C)C)cc1OCCCC(C)C [Compound C5INH-0536]
Kd (Human C5 [2]): 32 nM | IC50 (purified human C5; [3]): 175 nM

Reference: US20230115176A1 (Ra Pharmaceuticals, Inc., priority 2019, published 2023)
